Experimental data from patent US6737383B1, “Herbicidal oxadiazolidines” (priority 1999, dated 2004).

Assays:
crabgrass = test: Test A crabgrass; assay type: in vivo, Digitaria spp.; details: 0 to 10 scale where 0 is no effect and 10 is complete control
In short: (§1)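 Visual injury score, 0 (no effect) to 10 (complete control), vs untreated controls at ~11 d in greenhouse. Pre: soil drench on sandy loam. Post: spray to runoff, 1–2 leaf stage.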

morningglory = test: Test A morningglory; assay type: in vivo, Ipomoea spp.; details: 0 to 10 scale where 0 is no effect and 10 is complete control
In short: as §1

velvetleaf = test: Test A velvetleaf; assay type: in vivo, Abutilon theophrasti; details: 0 to 10 scale where 0 is no effect and 10 is complete control
In short: as §1

Setaria faberii (SETFA) = test: Test F preemergence, alone and in mixture with rimsulfuron, SETFA; assay type: in vivo; details: 21 days after treatment, 0-100 scale
Experimental: Abutilon theophrasti (ABUTH), Chenopodium album (CHEAL), Amaranthus rudis (AMATA), Setaria faberii (SETFA), Panicum dichotomiflorum (PANDI), and Digitaria sanguinalis (DIGSA) were grown from seed in pots of an artificial potting mixture in a greenhouse. Compounds of the present invention were applied at 70 and 105 g ai/ha preemergence. Rimsulfuron was applied at 8.8 and 17.5 g ai/ha. Mixtures of the compounds of the present invention and rimsulfuron were also applied.
(§2) Following application, the plants were maintained by watering as needed. A fertilizer solution of Peter's 20-20-20 (10 pounds/5 gallons of water) plus Sprint 330, a Iron Chelate micronutrient, (113.5 grams/5 gallons of water) was injected into the water with an Anderson fertilizer injection system to provide approximately 219 ppm of nitrogen with each watering. Artificial lighting was used to supplement natural light to produce a 14 hour photoperiod and: an additional one hour light period was used between 1:00 am to 2:00 am for a night interruption. Greenhouse temperatures were targeted for 27° C. in the day and 21° C. at night. At 21 days after treatment, all plants were evaluated for injury as compared to control plants that were sprayed only with non-phytotoxic solvent.
Colby's equation was used to calculate the expected additive herbicidal effect of the mixtures of Compound 21 and the mixture partners listed above. […]

[1] = test system: Panicum dichotomiflorum (PANDI); test: Test F preemergence, alone and in mixture with rimsulfuron, PANDI; assay type: in vivo; details: 21 days after treatment, 0-100 scale
In short: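 Greenhouse pot plants treated preemergence with compound at 70 and 105 g ai/ha, rimsulfuron at 8.8 and 17.5 g ai/ha, or mixtures; 27° C day/21° C night, 14 hour photoperiod. Injury scored at 21 days after treatment against solvent-sprayed controls; expected additive effect of mixtures calculated by Colby's equation.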

certain weeds = test: Test F overall statement on synergism with rimsulfuron (Colby's equation); assay type: in vivo; details: combinations with rimsulfuron, preemergence
Experimental: as §2, with “Abutilon theophrasti (ABUTH), Chenopodium album (CHEAL), Amaranthus rudis (AMATA), Setaria […]), Panicum dichotomiflorum (PANDI), and Digitaria sanguinalis (DIGSA) were grown from seed in pots of an artificial potting mixture in a greenhouse. Compounds of the present invention were applied at 70 and 105 g ai/ha preemergence. Rimsulfuron was applied at 8.8 and 17.5 g ai/ha. Mixtures of the compounds of the present invention and rimsulfuron were also applied. Following” for “Following”, “solvent. […] Colby's equation was used to calculate the expected additive herbicidal effect of the mixtures of Compound 21 and the mixture partners listed above. […]” for “solvent.”

[2] = Alone: Cmpd. rate 70, Rimsulfuron 0
[3] = Alone: Cmpd. rate 105, Rimsulfuron 0

With `CCN(CC)C(=O)n1oc(=O)n(-c2c(C)cccc2C)c1=O` [Compound 2] the “Plant response rating, Crabgrass” value (crabgrass; Postemergence, Rate 1000 g/ha) was 0, the “Plant response rating, Crabgrass” value (crabgrass; Pre-emergence, Rate 2000 g/ha) was 2 and the “Plant response rating, Morningglory” value (morningglory; Postemergence, Rate 1000 g/ha) was 0. For the same compound, the “Plant response rating, Morningglory” value (morningglory; Pre-emergence, Rate 2000 g/ha) was 0, the “Plant response rating, Velvetleaf” value (velvetleaf; Postemergence, Rate 1000 g/ha) was 0 and the “Plant response rating, Velvetleaf” value (velvetleaf; Pre-emergence, Rate 2000 g/ha) was 0.
Work on `CC(C)N(C(=O)n1oc(=O)n(-c2ccc(Cl)cc2Cl)c1=O)c1ccc(F)cc1` [Compound 7, 4-(2,4-Dichlorophenyl)-N-(4-fluorophenyl)-N-(1-methylethyl)-3,5-dioxo-1,2,4-oxadiazolidine-2-carboxamide] yielded a melting point of 57 to 60 °C.
In the case of `CC(C)N(C(=O)n1oc(=O)n(C2CC2)c1=O)c1ccc(F)cc1` [Compound 242], the “SETFA Observed” value (Setaria faberii (SETFA); [2]) is reported as 60%, the “SETFA Observed” value (Setaria faberii (SETFA); [3]) is reported as 75% and the “PANDI Observed” value [1, 2] is reported as 60%. For the same compound, the “PANDI Observed” value [1, 3] was 80% and the “Weed control of combination with rimsulfuron compared with expectation from Colby's equation” value (certain weeds) was “better control of certain weeds than expected”.
